# Patent US20220112479A1, “COMPOUNDS STABILIZING AMYLASES IN LIQUIDS” (BASF SE, priority 2018, published 2022)
# Columns and labels:
# Format in all cases: biochemical
# Savinase Ultra 16.0L = target: T1, Savinase Ultra 16.0L (Lederbergia lenta, UniProt P29600); assay: protease storage stability in liquid formulation (Suc-AAPF-pNA substrate); details: storage at 37° C.
# T1 construct: purchased Sigma-Aldrich
# T1 sequence (P29600 1-269): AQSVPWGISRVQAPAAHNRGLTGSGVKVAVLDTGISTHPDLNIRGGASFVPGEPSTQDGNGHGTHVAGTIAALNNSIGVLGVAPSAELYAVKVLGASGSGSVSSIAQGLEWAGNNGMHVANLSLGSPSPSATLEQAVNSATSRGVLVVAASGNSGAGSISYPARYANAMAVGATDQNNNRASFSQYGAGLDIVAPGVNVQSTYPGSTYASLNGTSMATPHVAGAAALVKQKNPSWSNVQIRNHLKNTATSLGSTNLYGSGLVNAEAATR
# Procedure, shortened: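 Savinase in liquid base formulations containing test salt, comparative compound or diethylene glycol; amounts given as active protein. Residual activity at set storage times measured with Suc-AAPF-pNA via pNA release at OD405, 20 °C. Activity expressed relative to reference formulation at time 0.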
# Amylase = assay: amylase storage stability in liquid laundry formulation (pNP release from Ethyliden-blocked-pNPG7); parameters: key: % of activity in reference formulation at time 0; details: 2.5 wt % component (a), storage at 37° C.
# Description: (§1) The storage stability of amylase was assessed at 37° C.
# Base test formulations were manufactured by making base formulations VI to IX by mixing the components according to Table 4.
# (§2) Amylase activity at certain points in time as indicated in Table 5 was measured quantitatively by the release of the chromophore para-nitrophenol (pNP) from the substrate (Ethyliden-blocked-pNPG7, Roche Applied Science 10880078103). The alpha-amylase degrades the substrate into smaller molecules and α-glucosidase (Roche Applied Science 11626329103), which is present in excess compared to the amylase, process these smaller products until pNP is released; the release of pNP, measured via an increase of absorption at 405 nm, is directly proportional to the amylase activity of the sample. Amylase standard: Termamyl 120 L (Sigma 3403).
# (§3) The amylolytic activity values provided were calculated referring to the value determined in the reference formulation at the time 0.
# (§4) The nomenclature of formulations is as follows: the Roman number before the full stop characterizes the base formulation, the Arabian number the type of compound (A.# compound according to invention (component (a)); B.# comparative compound).
# [1] = test system: Amy3=Stainzyme Plus L (12L); assay: amylase storage stability in liquid formulation (pNP release from Ethyliden-blocked-pNPG7); details: base formulation II., 1.5 wt % component (a), storage at 37° C.
# Description: as §1
# Base test formulations were manufactured by making base formulations I to V by mixing the components according to Table 1.
# Amylases used: Amy1=Stainzyme, Amy2=Amplify, Amy3=Stainzyme Plus L (12L)
# The respective component (a) or comparative compound was added, if applicable, to the respective base formulation in amounts as indicated in Table 1.
# The amount of amylase as provided in Table 1 refers to active protein.
# Water was added to accomplish the balance to 100.
# as §2, with “Table 2” for “Table 5”
# as §3, §4
smiles,measurement,setting,value
"CCOC(=O)CC(O)(CC(=O)OCC)C(=O)OCC [A.1, Triethylcitrate]","protease activity, referring to reference formulation at time 0","Savinase Ultra 16.0L; base formulation I., 1.5 wt % component (a), 3 d",97
same,"protease activity, referring to reference formulation at time 0","Savinase Ultra 16.0L; base formulation I., 1.5 wt % component (a), 7 d",94
same,"protease activity, referring to reference formulation at time 0","Savinase Ultra 16.0L; base formulation I., 1.5 wt % component (a), 14 d",89
same,"protease activity, referring to reference formulation at time 0","Savinase Ultra 16.0L; base formulation I., 1.5 wt % component (a), 21 d",83
same,"protease activity, referring to reference formulation at time 0","Savinase Ultra 16.0L; base formulation I., 1.5 wt % component (a), 28 d",79
same,"protease activity, referring to reference formulation at time 0","Savinase Ultra 16.0L; base formulation I., 1.5 wt % component (a), 42 d",67
same,"protease activity, referring to reference formulation at time 0","Savinase Ultra 16.0L; base formulation I., 1.5 wt % component (a), T0",100
same,"protease activity, referring to reference formulation at time 0","Savinase Ultra 16.0L; base formulation II., 1.5 wt % component (a), 3 d",99
same,"protease activity, referring to reference formulation at time 0","Savinase Ultra 16.0L; base formulation II., 1.5 wt % component (a), 7 d",96
same,"protease activity, referring to reference formulation at time 0","Savinase Ultra 16.0L; base formulation II., 1.5 wt % component (a), 14 d",90
same,"protease activity, referring to reference formulation at time 0","Savinase Ultra 16.0L; base formulation II., 1.5 wt % component (a), 21 d",85
same,"protease activity, referring to reference formulation at time 0","Savinase Ultra 16.0L; base formulation II., 1.5 wt % component (a), 28 d",80
same,"protease activity, referring to reference formulation at time 0","Savinase Ultra 16.0L; base formulation II., 1.5 wt % component (a), 42 d",69
same,"protease activity, referring to reference formulation at time 0","Savinase Ultra 16.0L; base formulation II., 1.5 wt % component (a), T0",100
same,"protease activity, referring to reference formulation at time 0","Savinase Ultra 16.0L; base formulation III., 1.5 wt % component (a), 3 d",99
same,"protease activity, referring to reference formulation at time 0","Savinase Ultra 16.0L; base formulation III., 1.5 wt % component (a), 7 d",93
same,"protease activity, referring to reference formulation at time 0","Savinase Ultra 16.0L; base formulation III., 1.5 wt % component (a), 14 d",88
same,"protease activity, referring to reference formulation at time 0","Savinase Ultra 16.0L; base formulation III., 1.5 wt % component (a), 21 d",85
same,"protease activity, referring to reference formulation at time 0","Savinase Ultra 16.0L; base formulation III., 1.5 wt % component (a), 28 d",74
same,"protease activity, referring to reference formulation at time 0","Savinase Ultra 16.0L; base formulation III., 1.5 wt % component (a), 42 d",67
same,"protease activity, referring to reference formulation at time 0","Savinase Ultra 16.0L; base formulation III., 1.5 wt % component (a), T0",100
same,"protease activity, referring to reference formulation at time 0","Savinase Ultra 16.0L; base formulation IV., 2.0 wt % component (a), 3 d",96
same,"protease activity, referring to reference formulation at time 0","Savinase Ultra 16.0L; base formulation IV., 2.0 wt % component (a), 7 d",92
same,"protease activity, referring to reference formulation at time 0","Savinase Ultra 16.0L; base formulation IV., 2.0 wt % component (a), 14 d",86
same,"protease activity, referring to reference formulation at time 0","Savinase Ultra 16.0L; base formulation IV., 2.0 wt % component (a), 21 d",80
same,"protease activity, referring to reference formulation at time 0","Savinase Ultra 16.0L; base formulation IV., 2.0 wt % component (a), 28 d",72
same,"protease activity, referring to reference formulation at time 0","Savinase Ultra 16.0L; base formulation IV., 2.0 wt % component (a), 42 d",65
same,"protease activity, referring to reference formulation at time 0","Savinase Ultra 16.0L; base formulation IV., 2.0 wt % component (a), T0",98
same,"protease activity, referring to reference formulation at time 0","Savinase Ultra 16.0L; base formulation V., 2.0 wt % component (a), 3 d",94
same,"protease activity, referring to reference formulation at time 0","Savinase Ultra 16.0L; base formulation V., 2.0 wt % component (a), 7 d",90
same,"protease activity, referring to reference formulation at time 0","Savinase Ultra 16.0L; base formulation V., 2.0 wt % component (a), 14 d",85
same,"protease activity, referring to reference formulation at time 0","Savinase Ultra 16.0L; base formulation V., 2.0 wt % component (a), 21 d",81
same,"protease activity, referring to reference formulation at time 0","Savinase Ultra 16.0L; base formulation V., 2.0 wt % component (a), 28 d",75
same,"protease activity, referring to reference formulation at time 0","Savinase Ultra 16.0L; base formulation V., 2.0 wt % component (a), 42 d",65
same,"protease activity, referring to reference formulation at time 0","Savinase Ultra 16.0L; base formulation V., 2.0 wt % component (a), T0",99
same,"amylase activity, referring to reference formulation at time 0","Amylase; laundry base formulation IX. (2.5 DTPA), 3 d",98
same,"amylase activity, referring to reference formulation at time 0","Amylase; laundry base formulation IX. (2.5 DTPA), 7 d",90
same,"amylase activity, referring to reference formulation at time 0","Amylase; laundry base formulation IX. (2.5 DTPA), 14 d",85
same,"amylase activity, referring to reference formulation at time 0","Amylase; laundry base formulation IX. (2.5 DTPA), 21 d",78
same,"amylase activity, referring to reference formulation at time 0","Amylase; laundry base formulation IX. (2.5 DTPA), 28 d",70
same,"amylase activity, referring to reference formulation at time 0","Amylase; laundry base formulation IX. (2.5 DTPA), T0",99
same,"amylase activity, referring to reference formulation at time 0","Amylase; laundry base formulation VI. (2.0 EDTA), 3 d",98
same,"amylase activity, referring to reference formulation at time 0","Amylase; laundry base formulation VI. (2.0 EDTA), 7 d",91
same,"amylase activity, referring to reference formulation at time 0","Amylase; laundry base formulation VI. (2.0 EDTA), 14 d",86
same,"amylase activity, referring to reference formulation at time 0","Amylase; laundry base formulation VI. (2.0 EDTA), 21 d",81
same,"amylase activity, referring to reference formulation at time 0","Amylase; laundry base formulation VI. (2.0 EDTA), 28 d",73
same,"amylase activity, referring to reference formulation at time 0","Amylase; laundry base formulation VI. (2.0 EDTA), T0",100
same,"amylase activity, referring to reference formulation at time 0","Amylase; laundry base formulation VII. (2.0 EDTA), 3 d",95
same,"amylase activity, referring to reference formulation at time 0","Amylase; laundry base formulation VII. (2.0 EDTA), 7 d",88
same,"amylase activity, referring to reference formulation at time 0","Amylase; laundry base formulation VII. (2.0 EDTA), 14 d",79
same,"amylase activity, referring to reference formulation at time 0","Amylase; laundry base formulation VII. (2.0 EDTA), 21 d",73
same,"amylase activity, referring to reference formulation at time 0","Amylase; laundry base formulation VII. (2.0 EDTA), 28 d",68
same,"amylase activity, referring to reference formulation at time 0","Amylase; laundry base formulation VII. (2.0 EDTA), T0",100
same,"amylase activity, referring to reference formulation at time 0","Amylase; laundry base formulation VIII. (2.5 DTPA, no Savinase), 3 d",98
same,"amylase activity, referring to reference formulation at time 0","Amylase; laundry base formulation VIII. (2.5 DTPA, no Savinase), 7 d",93
same,"amylase activity, referring to reference formulation at time 0","Amylase; laundry base formulation VIII. (2.5 DTPA, no Savinase), 14 d",88
same,"amylase activity, referring to reference formulation at time 0","Amylase; laundry base formulation VIII. (2.5 DTPA, no Savinase), 21 d",83
same,"amylase activity, referring to reference formulation at time 0","Amylase; laundry base formulation VIII. (2.5 DTPA, no Savinase), 28 d",75
same,"amylase activity, referring to reference formulation at time 0","Amylase; laundry base formulation VIII. (2.5 DTPA, no Savinase), T0",100
same,"amylase activity, referring to reference formulation at time 0",[1]; 3 d,100
same,"amylase activity, referring to reference formulation at time 0",[1]; 7 d,94
same,"amylase activity, referring to reference formulation at time 0",[1]; 14 d,90
same,"amylase activity, referring to reference formulation at time 0",[1]; 21 d,84
same,"amylase activity, referring to reference formulation at time 0",[1]; 28 d,77
same,"amylase activity, referring to reference formulation at time 0",[1]; 42 d,65
same,"amylase activity, referring to reference formulation at time 0",[1]; T0,100
